Assay results from US20050176826A1, “Use of asc-1 inhibitors to treat neurological and psychiatric disorders” (H. Lundbeck A/S, priority 2002, published 2005).

Key:
NMDA receptor = NMDA receptor (Homo sapiens, UniProt Q05586); details: versus glycine; cited from earlier work
human asc-1 = molecular target: T1, human asc-1 (Homo sapiens, UniProt Q9NS82); assay: [3H]D-serine uptake into HEK293 cells expressing human asc-1; type: cell-based; details: for inhibition of [3H]D-serine uptake (in words): HEK293 cells expressing the cloned asc-1
T1 construct: expressed in transfected cells; host or cells: HEK293 (ATCC CRL 1573), transient, vector pCI/neo
T1 sequence (Q9NS82 1-523): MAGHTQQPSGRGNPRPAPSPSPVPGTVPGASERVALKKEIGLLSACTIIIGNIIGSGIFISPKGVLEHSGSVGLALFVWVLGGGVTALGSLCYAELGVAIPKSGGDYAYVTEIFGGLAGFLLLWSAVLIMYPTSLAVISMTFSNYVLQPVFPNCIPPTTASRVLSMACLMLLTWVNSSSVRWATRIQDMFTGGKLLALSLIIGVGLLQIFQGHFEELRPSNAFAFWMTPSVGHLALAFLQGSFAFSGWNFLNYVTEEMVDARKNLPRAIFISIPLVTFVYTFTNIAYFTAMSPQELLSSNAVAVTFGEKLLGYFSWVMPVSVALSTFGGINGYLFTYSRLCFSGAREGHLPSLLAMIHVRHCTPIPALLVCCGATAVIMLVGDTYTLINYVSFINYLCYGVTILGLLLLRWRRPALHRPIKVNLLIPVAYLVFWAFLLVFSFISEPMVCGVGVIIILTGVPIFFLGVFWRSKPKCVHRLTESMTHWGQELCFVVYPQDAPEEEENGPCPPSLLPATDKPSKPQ
Description: Uptake was determined 2-4 days after the transfection.
(§1) Into cortical membranes: Cortex from male Wistar rats (150-200 g) was homogenized in 0.40 M sucrose and centrifuged at 1000×g for 10 min. […] Test compounds and tissue (1 mg orig. tissue/well) were added to 96 well plates and incubated with [^3H]-D-serine (specific activity=26.8 Ci/mmol, PerkinElmer, Cambridge, U.K.) (100 nM final concentration) for 5 min at 25° C. Samples were filtered on Unifilter GF/B glass fiber (Packard Biosciences, Meriden, Conn., USA) and washed with 3×0.25 mL assay buffer. Measurements of [^3H]-D-serine uptake into whole HEK293 cells expressing human asc-1 were performed in 96 well plates with similar conditions except that the cells were incubated for 15 min with radioligand and washed by dipping twice in cold assay buffer following incubation with radioligand. Accumulated radioactivity was extracted from the cells by adding 200 μL scintillation fluid/well (Ultima Gold, Packard Biosciences) and the plates were counted in a Microplates Scintillation Counter (Packard Biosciences). The D-serine uptake in samples containing test compounds was compared to controls without added compound or controls where transport via the asc-1 was inhibited by addition of e.g. 30 mM L-alanine.

[1] = molecular target: T2, D-serine-sensitive Na+-independent transporter in rat cortical membranes (Rattus norvegicus, UniProt P63116); assay: Na+-independent [3H]D-serine uptake into rat cortical membranes (synaptosomes); type: biochemical; details: for inhibition of [3H]D-serine uptake (in words): rat cortical synaptosomes
T2 construct: from tissue; host or cells: rat cerebral cortex membranes (P2 synaptosomes), male Wistar rats
T2 sequence (P63116 1-530): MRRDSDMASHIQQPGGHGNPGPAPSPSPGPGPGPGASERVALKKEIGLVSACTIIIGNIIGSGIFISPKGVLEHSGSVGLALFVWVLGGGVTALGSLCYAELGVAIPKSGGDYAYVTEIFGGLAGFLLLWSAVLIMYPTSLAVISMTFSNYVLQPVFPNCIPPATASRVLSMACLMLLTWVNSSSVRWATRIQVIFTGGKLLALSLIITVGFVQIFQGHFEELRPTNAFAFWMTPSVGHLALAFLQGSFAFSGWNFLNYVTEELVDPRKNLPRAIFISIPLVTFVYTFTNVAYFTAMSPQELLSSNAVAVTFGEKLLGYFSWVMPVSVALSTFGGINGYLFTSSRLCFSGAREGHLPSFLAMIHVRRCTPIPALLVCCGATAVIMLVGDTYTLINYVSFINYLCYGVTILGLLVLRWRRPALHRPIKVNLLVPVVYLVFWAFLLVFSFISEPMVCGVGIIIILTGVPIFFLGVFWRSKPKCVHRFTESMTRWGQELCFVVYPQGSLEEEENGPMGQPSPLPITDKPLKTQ
T2 sequence (Q794F9 1-527 partner): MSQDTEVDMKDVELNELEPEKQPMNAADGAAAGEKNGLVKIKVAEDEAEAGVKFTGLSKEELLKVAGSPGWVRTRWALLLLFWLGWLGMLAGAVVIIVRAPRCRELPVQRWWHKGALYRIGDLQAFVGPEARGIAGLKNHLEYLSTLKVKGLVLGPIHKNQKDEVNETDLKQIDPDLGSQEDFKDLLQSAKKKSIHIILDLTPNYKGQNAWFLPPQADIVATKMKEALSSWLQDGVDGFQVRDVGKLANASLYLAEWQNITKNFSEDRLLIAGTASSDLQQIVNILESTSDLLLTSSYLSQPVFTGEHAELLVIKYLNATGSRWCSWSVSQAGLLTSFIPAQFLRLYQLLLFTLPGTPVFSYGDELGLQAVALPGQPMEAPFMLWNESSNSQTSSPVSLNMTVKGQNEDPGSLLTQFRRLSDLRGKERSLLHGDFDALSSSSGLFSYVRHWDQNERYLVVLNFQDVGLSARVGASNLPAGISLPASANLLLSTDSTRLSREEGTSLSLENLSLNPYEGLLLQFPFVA
Description: as §1

With N[C@H](CO)C(=O)O [D-serine] as the compound, how does the “co-agonist potency relative to glycine at the allosteric site on the NMDA receptor” value (NMDA receptor) read?
The value was 3-4 fold.

What does the source list for C[C@H](N)C(=O)O [L-alanine]?
block of uptake via the asc system, including asc-1 (human asc-1; 30 mM): completely block; inhibition of [3H]D-serine uptake (in words) (human asc-1): effective inhibition; block of [3H]D-serine uptake into rat cortical membranes ([1]; rat cortical membranes): completely blocks; inhibition of [3H]D-serine uptake (in words) [1]: effective inhibition

What does the source list for N=C(N)NCCC[C@H](N)C(=O)O [L-arginine]?
inhibition of [3H]D-serine uptake (in words) (human asc-1): Inactive; inhibition of [3H]D-serine uptake (in words) [1]: Inactive

Which results are given for NC(=O)C[C@H](N)C(=O)O [L-asparagine]?
inhibition of [3H]D-serine uptake (in words) (human asc-1): Less effective, but significant inhibition; inhibition of [3H]D-serine uptake (in words) [1]: Less effective, but significant inhibition

Which “inhibition of [3H]D-serine uptake (in words)” value (“inhibition” for short) (human asc-1) does the source give for N[C@@H](CC(=O)O)C(=O)O [L-aspartate] here?
Its value is “Inactive”.

What about the “inhibition” value [1] of the same compound?
The value was “Inactive”.

What does the source list for N[C@@H](CS)C(=O)O [L-cysteine]?
inhibition of [3H]D-serine uptake (in words) (human asc-1): effective inhibition; inhibition of [3H]D-serine uptake (in words) [1]: effective inhibition

Which results are given for N[C@@H](CSSC[C@H](N)C(=O)O)C(=O)O [L-cystine]?
inhibition of [3H]D-serine uptake (in words) (human asc-1): Inactive; inhibition of [3H]D-serine uptake (in words) [1]: Inactive

Which “inhibition” value (human asc-1) does the source give for N[C@@H](CCC(=O)O)C(=O)O [L-glutamate] here?
The value was “Inactive”.

And the “inhibition” value [1]?
Its value is “Inactive”.

With NC(=O)CC[C@H](N)C(=O)O [L-glutamine] as the compound, how does the “inhibition” value (human asc-1) read?
The value was “Inactive”.

And the “inhibition” value [1]?
The value was “Inactive”.

What does the source list for NCC(=O)O [L-glycine]?
inhibition of [3H]D-serine uptake (in words) (human asc-1): effective inhibition; inhibition of [3H]D-serine uptake (in words) [1]: effective inhibition

For N[C@@H](Cc1c[nH]cn1)C(=O)O [L-histidine], which “inhibition” value (human asc-1) is on record?
The value was “Less effective, but significant inhibition”.

What about the “inhibition” value [1] of the same compound?
Its value is “Less effective, but significant inhibition”.

What does the source list for CC[C@H](C)[C@H](N)C(=O)O [L-isoleucine]?
inhibition of [3H]D-serine uptake (in words) (human asc-1): Less effective, but significant inhibition; inhibition of [3H]D-serine uptake (in words) [1]: Less effective, but significant inhibition

Which “inhibition” value (human asc-1) does the source give for CC(C)C[C@H](N)C(=O)O [L-leucine] here?
The value was “Less effective, but significant inhibition”.

And the “inhibition” value [1]?
The value was “Less effective, but significant inhibition”.

Which “inhibition” value (human asc-1) does the source give for NCCCC[C@H](N)C(=O)O [L-lysine] here?
The value was “Inactive”.

What about the “inhibition” value [1] of the same compound?
The value was “Inactive”.

With CSCC[C@H](N)C(=O)O [L-methionine] as the compound, how does the “inhibition” value (human asc-1) read?
Its value is “Less effective, but significant inhibition”.

And the “inhibition” value [1]?
The value was “Less effective, but significant inhibition”.

Which results are given for N[C@@H](Cc1ccccc1)C(=O)O [L-phenylalanine]?
inhibition of [3H]D-serine uptake (in words) (human asc-1): Less effective, but significant inhibition; inhibition of [3H]D-serine uptake (in words) [1]: Less effective, but significant inhibition

For O=C(O)[C@@H]1CCCN1 [L-proline], which “inhibition” value (human asc-1) is on record?
Its value is “Inactive”.

What about the “inhibition” value [1] of the same compound?
The value was “Inactive”.

Which “inhibition” value (human asc-1) does the source give for N[C@@H](CO)C(=O)O [L-serine] here?
The value was “effective inhibition”.

What about the “inhibition” value [1] of the same compound?
Its value is “effective inhibition”.

With C[C@@H](O)[C@H](N)C(=O)O [L-threonine] as the compound, how does the “inhibition” value (human asc-1) read?
Its value is “effective inhibition”.

What about the “inhibition” value [1] of the same compound?
Its value is “effective inhibition”.

With N[C@@H](Cc1ccc(O)cc1)C(=O)O [L-tyrosine] as the compound, how does the “inhibition” value (human asc-1) read?
The value was “Less effective, but significant inhibition”.

And the “inhibition” value [1]?
Its value is “Less effective, but significant inhibition”.

Which results are given for CC(C)[C@H](N)C(=O)O [L-valine]?
inhibition of [3H]D-serine uptake (in words) (human asc-1): Less effective, but significant inhibition; inhibition of [3H]D-serine uptake (in words) [1]: Less effective, but significant inhibition
